Measured values: ChEMBL document CHEMBL1201862, “PubChem BioAssay data set” (2004)
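Assay format: 96-well plates, 48-hour exposure. GI50: concentration for 50% inhibition of growth.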 Active and inactive are the calls of the source. Rule as the data show it: active = GI50 up to about 1.1 µM and inactive = higher.

Tests used:
Experiment in all cases: DTP human tumour cell line panel, 48 h
[1] = tested on: OVCAR-5
[2] = tested on: SF-268
[3] = tested on: SNB-75
[4] = tested on: DU-145
[5] = tested on: NCI/ADR-RES
[6] = tested on: PC-3
[7] = tested on: MDA-N
[8] = tested on: UO-31
[9] = tested on: OVCAR-8
[10] = tested on: SF-295
[11] = tested on: A498
[12] = tested on: ACHN
[13] = tested on: HOP-92
[14] = tested on: A549
[15] = tested on: UACC-257
[16] = tested on: Malme-3M
[17] = tested on: NCI-H460
[18] = tested on: OVCAR-4
[19] = tested on: CCRF-CEM
[20] = tested on: RXF 393

Measured: GI50

CN(C)CCN(C)P12(Oc3ccccc3O1)Oc1c(Cl)c(Cl)c(Cl)c(Cl)c1O2
inactive: [1] 46.1 µM | [2] 36.1 µM | [3] 13.7 µM | [4] 85.5 µM | [5] 35.8 µM | [6] 33.7 µM | [7] 48.4 µM | [8] 39.1 µM | [9] 40.7 µM | [10] 37.1 µM | [11] 60.5 µM | [12] 39.8 µM | [13] 22.1 µM | [14] 46.9 µM | [15] 29.5 µM | [16] 46.6 µM | [17] 37.2 µM | [18] 33.5 µM | [19] 29 µM

OC(Cc1ccc2ccccc2n1)(C(F)(F)F)C(F)(F)F
inactive: [1] > 10 µM | [2] > 10 µM | [3] > 10 µM | [4] > 10 µM | [5] > 10 µM | [6] > 10 µM | [7] > 10 µM | [8] > 10 µM | [9] > 10 µM | [10] > 10 µM | [11] > 10 µM | [12] > 10 µM | [13] > 10 µM | [14] > 10 µM | [15] > 10 µM | [16] > 10 µM | [17] > 10 µM | [18] > 10 µM | [19] > 10 µM

c1cc2nnc1SCCCSc1ccc(nn1)SCCCSc1ccc(nn1)SCCCS2
inactive: [1] > 100 µM | [2] 92 µM | [3] 28.6 µM | [4] > 100 µM | [5] > 100 µM | [6] > 100 µM | [7] > 100 µM | [8] > 100 µM | [20] 56.4 µM | [9] > 100 µM | [10] > 100 µM | [11] > 100 µM | [12] > 100 µM | [14] > 100 µM | [15] > 100 µM | [16] > 100 µM | [17] > 100 µM | [18] > 100 µM | [19] > 100 µM

COc1cc2c(cc1C)NC(=O)/C2=C/c1c(Cl)n(C)c2ccccc12
inactive: [1] 12.5 µM | [2] 4.48 µM | [3] 3.34 µM | [4] 10.3 µM | [5] 3.61 µM | [6] 5.38 µM | [7] 2.15 µM | [8] 7.05 µM | [20] 4.1 µM | [9] 12.5 µM | [10] 7.66 µM | [11] 5.86 µM | [12] 10.3 µM | [14] 10.2 µM | [15] 11.9 µM | [16] 8 µM | [17] 6.71 µM | [18] 6.87 µM | [19] 1.9 µM
